Values after ≈ are worked out from the molar mass of the structure shown.
Key:
Type in all cases: functional
Streptococcus pneumoniae [1] = assay: In vitro minimum inhibitory concentration against penicillin intermediate Streptococcus pneumoniae strains (number of strains = 3).
Streptococcus pneumoniae [2] = assay: In vitro minimum inhibitory concentration against penicillin resistant Streptococcus pneumoniae strains (PRSP) (number of strains = 5).
Streptococcus pneumoniae [3] = assay: In vitro minimum inhibitory concentration against penicillin susceptible Streptococcus pneumoniae strains (number of strains = 3).

SMILES | MIC (Streptococcus pneumoniae [1]) [µg/mL] | MIC (Streptococcus pneumoniae [2]) [µg/mL] | MIC (Streptococcus pneumoniae [3]) [µg/mL]
N[C@@H](C(=O)N[C@@H]1C(=O)N2C(C(=O)O)=C(Sc3ccccn3)CC[C@H]12)c1ccccc1 | 1 (≈ 2.36 µM) | 2 (≈ 4.71 µM) | 0.06 (≈ 0.141 µM)
CCSc1nnc(SC2=C(C(=O)O)N3C(=O)[C@@H](NC(=O)[C@H](N)c4ccccc4)[C@H]3CC2)s1 | 0.25 (≈ 0.509 µM) | 0.5 (≈ 1.02 µM) | 0.03 (≈ 0.061 µM)
N[C@@H](C(=O)N[C@@H]1C(=O)N2C(C(=O)O)=C(Sc3ccncc3)CC[C@H]12)c1ccccc1 | 0.25 (≈ 0.589 µM) | 4 (≈ 9.42 µM) | 0.12 (≈ 0.283 µM)
N[C@@H](C(=O)N[C@@H]1C(=O)N2C(C(=O)O)=C(Sc3cccs3)CC[C@H]12)c1ccccc1 | 2 (≈ 4.66 µM) | 16 (≈ 37.3 µM) | 0.25 (≈ 0.582 µM)
N[C@@H](C(=O)N[C@@H]1C(=O)N2C(C(=O)O)=C(Sc3nncs3)CC[C@H]12)c1ccccc1 | 0.25 (≈ 0.579 µM) | 1 (≈ 2.32 µM) | 0.06 (≈ 0.139 µM)
N[C@@H](C(=O)N[C@@H]1C(=O)N2C(C(=O)O)=C(Sc3ccccc3CO)CC[C@H]12)c1ccccc1 | 2 (≈ 4.41 µM) | 4 (≈ 8.82 µM) | 0.06 (≈ 0.132 µM)
C[n+]1ccc(SC2=C(C(=O)[O-])N3C(=O)[C@@H](NC(=O)[C@H](N)c4ccccc4)[C@H]3CC2)cc1 | 1 (≈ 2.28 µM) | 4 (≈ 9.12 µM) | 0.25 (≈ 0.57 µM)
N[C@@H](C(=O)N[C@@H]1C(=O)N2C(C(=O)O)=C(Sc3ccccc3Br)CC[C@H]12)c1ccccc1 | 0.25 (≈ 0.498 µM) | 2 (≈ 3.98 µM) | 0.06 (≈ 0.119 µM)
N[C@@H](C(=O)N[C@@H]1C(=O)N2C(C(=O)O)=C(Sc3nnc(SCC4CC4)s3)CC[C@H]12)c1ccccc1 | 0.06 (≈ 0.116 µM) | 0.25 (≈ 0.483 µM) | < 0.03
CSC1=C(C(=O)O)N2C(=O)[C@@H](NC(=O)[C@H](N)c3ccccc3)[C@H]2CC1 | 8 (≈ 22.1 µM) | > 16 | 1 (≈ 2.77 µM)
N[C@@H](C(=O)N[C@@H]1C(=O)N2C(C(=O)O)=C(Sc3cnns3)CC[C@H]12)c1ccccc1 | 0.25 (≈ 0.579 µM) | 1 (≈ 2.32 µM) | 0.06 (≈ 0.139 µM)
Nc1nnc(SC2=C(C(=O)O)N3C(=O)[C@@H](NC(=O)[C@H](N)c4ccccc4)[C@H]3CC2)s1 | 0.5 (≈ 1.12 µM) | 2 (≈ 4.48 µM) | 0.06 (≈ 0.134 µM)
Cn1ccnc1SC1=C(C(=O)O)N2C(=O)[C@@H](NC(=O)[C@H](N)c3ccccc3)[C@H]2CC1 | 8 (≈ 18.7 µM) | > 16 | 1 (≈ 2.34 µM)
N[C@@H](C(=O)N[C@@H]1C(=O)N2C(C(=O)O)=C(Sc3ncccn3)CC[C@H]12)c1ccccc1 | 0.5 (≈ 1.18 µM) | 4 (≈ 9.4 µM) | 0.12 (≈ 0.282 µM)
N[C@@H](C(=O)N[C@@H]1C(=O)N2C(C(=O)O)=C(Sc3ccccc3)CC[C@H]12)c1ccccc1 | 1 (≈ 2.36 µM) | 4 (≈ 9.45 µM) | 0.06 (≈ 0.142 µM)
N=C(N)SCc1ccccc1SC1=C(C(=O)O)N2C(=O)[C@@H](NC(=O)[C@H](N)c3ccccc3)[C@H]2CC1 | 0.25 (≈ 0.489 µM) | 0.5 (≈ 0.977 µM) | 0.02 (≈ 0.0391 µM)
Cn1cnnc1SC1=C(C(=O)O)N2C(=O)[C@@H](NC(=O)[C@H](N)c3ccccc3)[C@H]2CC1 | 4 (≈ 9.34 µM) | > 16 | 0.5 (≈ 1.17 µM)
N[C@@H](C(=O)N[C@@H]1C(=O)N2C(C(=O)O)=C(Sc3nc4ccccc4s3)CC[C@H]12)c1ccccc1 | 4 (≈ 8.32 µM) | 8 (≈ 16.6 µM) | 0.5 (≈ 1.04 µM)
Cc1nnc(SC2=C(C(=O)O)N3C(=O)[C@@H](NC(=O)[C@H](N)c4ccccc4)[C@H]3CC2)s1 | 1 (≈ 2.24 µM) | 1 (≈ 2.24 µM) | 0.03 (≈ 0.0673 µM)
CSc1nnc(SC2=C(C(=O)O)N3C(=O)[C@@H](NC(=O)[C@H](N)c4ccccc4)[C@H]3CC2)s1 | 0.06 (≈ 0.126 µM) | 0.25 (≈ 0.523 µM) | < 0.03
N[C@@H](C(=O)N[C@@H]1C(=O)N2C(C(=O)O)=C(Sc3nccs3)CC[C@H]12)c1ccccc1 | 2 (≈ 4.65 µM) | 4 (≈ 9.29 µM) | 0.12 (≈ 0.279 µM)
N[C@@H](C(=O)N[C@@H]1C(=O)N2C(C(=O)O)=C(Cl)CC[C@H]12)c1ccccc1 [LORACARBEF ANHYDROUS] | 8 (≈ 22.9 µM) | > 16 | 2 (≈ 5.72 µM)

Source: ChEMBL document CHEMBL1150461, “Synthesis of new 3-thiosubstituted carbacephem antibiotics and their activity against penicillin resistant Streptococcus pneumoniae” (1997)
